Assays:
[1] = test system: branch of the superior sagittal sinus in the brains of rats and hamsters; experiment: Transection of a branch of the superior sagittal sinus in the brain; hemostasis assessed visually from time-stamped video; type: in vivo
Experimental: Animals were anesthetized with an i.p. injection of ketamine (80 mg/kg) and xylazine (8 mg/kg). All surgical procedures were conducted under an operating microscope. Twenty-two animals, including 10 adult hamsters and 12 young adult female Spraque-Dawley rats (200-250 g), were treated with either iced saline or 20 μl of a 1% peptide solution at the site of the sinus branch transection. The material was prepared by dissolving RADA 16-1 (n-RADARADARADARADA-c; SEQ ID NO: 1) peptide in sterile water, and the peptide-containing solution was applied to the injured tissue with a 31 gauge needle attached to a 2 cc syringe.
The experiment was videotaped with a time stamp and was replayed one frame at a time to evaluate the length of time required for the peptide solution to form a gel, which effectively impeded bleeding. Hemostasis was assessed visually, and “complete hemostasis” was defined as the complete lack of movement of blood from the wound site.
Durations were measured from the start of application of peptide solution to the completion of hemostasis after transection of the veins leading to the sinus in the brains of adult rats. […] In the saline controls, cessation of bleeding was never achieved. The saline control experiment was terminated at the same time point in order to prevent the animals from bleeding to death.
A total of 22 rats and 64 hamsters have been subjected to experiments in which peptide-containing solutions effectively achieved hemostasis within 10 seconds following application to a site intracranial bleeding.

superior sagittal sinus = experiment: Complete transection of the superior sagittal sinus; hemostasis; type: in vivo; settings: control animals still bleeding after 20 seconds
Excerpt: A higher concentration of peptide (e.g., approximately 3%-4%) was used in the latter experiment in order to achieve hemostasis. The three saline control cases continued to bleed after 20 seconds.

femoral artery = experiment: Femoral artery transection; hemostasis; type: in vivo, adult rats
Experimental: The sciatic nerve and the adjacent femoral artery were exposed in adult rats, and the femoral artery was transected. Twelve rats were treated by application of 20 μl of a 1% solution of RADA 16-I peptide to the site of transection using a glass pipette attached to a syringe body, while controls were treated by applying cold saline to the site of transection. […] The saline control cases continued to bleed until the experiment was terminated at 110 seconds. […] A series of pictures was taken in an adult rat in which the femoral artery was transected. In the picture taken first, the sciatic nerve and the femoral artery are exposed. […] The assembled material can be suctioned off the site easily if desired.
In the saline controls, hemostasis was never reached.

spinotrapezius muscles = experiment: Muscle trauma, deep cut in the spinotrapezius muscles on the back; hemostasis; type: in vivo, rat; settings: 1% peptide solution applied in the cut
Excerpt: The spinotrapezius muscles on the back of the rats were exposed and a deep cut was made in the muscle, after which 1% peptide solution (RADA16-I) was applied in the cut. Within 10 seconds, all bleeding had stopped. With the application of iced saline alone, control animals continued to bleed after 20 seconds.

muscle of the hind limb = experiment: Hind limb muscle wounds (porteocaudalis and musculus tibialis cranialis); hemostasis; type: in vivo
Excerpt: However when an artery or vein was transected 2% or higher material was needed to bring about hemostasis. With the application of iced saline alone, control animals continued to bleed after 20 seconds.

[2] = test system: liver (lobus sinister lateralis); experiment: Liver, rostral to caudal cut of the lobus sinister lateralis (relatively low pressure vessel); hemostasis; type: in vivo, adult rat; settings: 1% peptide solution, topically and in the cut
Excerpt: Profuse bleeding ensued. A 1% peptide solution (RADA16-1) was applied to the cut and in its vicinity using a 27 gauge needle and 4 cc syringe. All bleeding stopped within 10 seconds. A series of pictures was obtained. […] After treating the site with 1% peptide solution (applied topically and in the cut), all bleeding stopped within 10 seconds. A clear area was observed between the two halves of the lobus sinister lateralis. This procedure was repeated several times with the same result.

[3] = test system: liver and a major branch of the portal vein; experiment: Liver, transverse cut transecting a major branch of the portal vein (higher pressure); hemostasis; type: in vivo
Experimental: A series of pictures illustrate the experiment. […] The cut was treated with 4% peptide solution applied topically and in the cut. All bleeding stopped within 10 seconds. […] Thus, application of 4% peptide solution brings about complete hemostasis in a high pressure bleeding environment in less than 10 seconds. […] This procedure was repeated several times with the same result.

[4] = test system: liver (lobus sinistras laterialis); experiment: Liver, removal of 1/4 of the lobe, topical treatment of the margin; hemostasis; type: in vivo
Experimental: In other experiments ¼ of the lobe in the lower right quadrant of the lobus sinistras laterialis was removed, and the margin was treated with a topical application of 2% peptide (RADA16-I) to the site of injury. Bleeding stopped in less than 10 seconds.

intestine (duodenum) = experiment: Perforated intestine at the level of the duodenum; leakage of gastric fluid; type: in vivo, adult rat
Experimental: An additional volume of 2% peptide solution was injected into the duodenum at the level of the injury. […] In the control cut at the level of the duodenum, the wall of the intestine inverted and gastric fluids continued to leak from the site of injury when left untreated.

skin wounds = experiment: 4 mm punch biopsy healing test of skin and subcutaneous tissue; type: in vivo; settings: single application
Experimental: The regions from which the biopsies were taken were either treated by a single application of self-assembling peptide (RADA16-I) solution or were left untreated. The wounds were left unbandaged. A series of pictures of a 4 mm punch biopsy healing test in which injured animals were treated with the self assembling peptide and compared to matching cases with no treatment illustrates the results. The wounds were photographed on day 0, day 1, day 4, and day 7. […] Treatment with the peptide appeared to speed healing by as much as 5 days in some cases.

[5] = control cut treated 15 minutes after the injury

In the case of n-RADARADARADARADA-c [RADA16-I], the “time to complete hemostasis after application of the peptide solution” value ([1]; 20 μl of a 1% peptide solution, rats and hamsters, all cases) is reported as at most 10 s, the “hemostasis in picture series” value ([1]; adult rat, five seconds after the peptide solution was applied) is reported as “Complete hemostasis was achieved” and the “average duration from start of application to completion of hemostasis” value ([1]; adult rats, transection of the veins leading to the sinus) is reported as 8.3 s. For the same substance, the “hemostasis after iced saline was removed and peptide solution applied” value (superior sagittal sinus) was “complete hemostasis almost immediately”, the time to hemostasis (femoral artery; 20 μl of a 1% solution, all treated cases) was “less than 10 seconds” and the “hemostasis in picture series” value (femoral artery; adult rat, after about five seconds) was “complete hemostasis was observed”. The “hemostasis after replacement of cold saline with the peptide solution” value (femoral artery; control animals) was “almost immediate achievement of complete hemostasis”, the “time complete hemostasis was maintained” value (femoral artery; duration of the test) was at least 1 h and the “time until all bleeding had stopped” value (spinotrapezius muscles) was at most 10 s. For the same substance, the “hemostasis in limb wounds” value (muscle of the hind limb; between 1% to 100% peptide) was “hemostasis was achieved in all cases”, the “material concentration needed to bring about hemostasis” value (muscle of the hind limb; when an artery or vein was transected) was at least 2% and the “time until all bleeding stopped” value [2] was at most 10 s. The hemostasis ([3]; 1% solution) was “partial cessation of bleeding”, the hemostasis ([3]; 2% or 3% peptide solution) was “complete hemostasis was also achieved” and the “time until all bleeding stopped” value ([3]; 4% peptide solution, topically and in the cut) was at most 10 s. For the same substance, the “bleeding at later time” value ([3]; 4% peptide solution, ten minutes later, after physical stress) was “still no bleeding”, the “hemostasis after excess peptide structure was wiped away” value ([3]; 30 seconds after treatment) was “hemostasis was maintained” and the “hemostasis at the margin after the peptide was removed” value ([4]; 2% peptide, removed one minute later) was “complete hemostasis was achieved”. For the same substance, the “time until bleeding stopped” value ([4]; topical 2% peptide) was “less than 10 seconds”, the “leakage of gastric fluids after treatment of the site” value (intestine (duodenum); 2% peptide solution) was “all leakage of gastric fluids from the intestine stopped” and the “leakage after additional volume injected into the duodenum” value (intestine (duodenum); 2% peptide solution, duration of the procedure) was “prevented all leakage from the intestine for one hour”. For the same substance, the intestinal wall inversion (intestine (duodenum); [5]) was “stopped the progression of the intestinal wall inversion”, the “leakage when treated after the injury” value (intestine (duodenum); [5]) was “stopped all leakage from this injury site” and the “wound healing versus untreated” value (skin wounds; contraction of the wound site as early as day 1) was “healed much faster”. For the same substance, the “speeding of healing versus no treatment” value (skin wounds; some cases) was at most 5 days.
